Assay results from article PMC12667739 (ACS infectious diseases, 2025).

molecular target: T1, ComD (Streptococcus gordonii, UniProt O33646); assay: cell-based

| Structure (SMILES) | EC50 [nM] |
| --- | --- |
| CC[C@H](C)[C@H](NC(=O)[C@H](CCCNC(=N)N)NC(=O)[C@H](C)NC(=O)[C@H](CCCNC(=N)N)NC(=O)[C@@H](NC(=O)[C@@H](N)CC(=O)O)[C@@H](C)CC)C(=O)N[C@@H](CC(N)=O)C(=O)N[C@@H](CC(N)=O)C(=O)N[C@@H](CO)C(=O)N[C@H](C(=O)N[C@@H](Cc1c[nH]c2ccccc12)C(=O)N[C@@H](CCCNC(=N)N)C(=O)N[C@@H](CC(=O)O)C(=O)N[C@H](C(=O)N[C@@H](Cc1ccccc1)C(=O)N[C@@H](CC(C)C)C(=O)N[C@@H](CCCCN)C(=O)N[C@@H](CCCNC(=N)N)C(=O)N[C@@H](CCCCN)C(=O)O)[C@@H](C)CC)[C@@H](C)CC [Peptide H4A] | 722 |
| CC[C@H](C)[C@H](NC(=O)[C@H](CC(=O)O)NC(=O)[C@H](CCCNC(=N)N)NC(=O)[C@H](Cc1c[nH]c2ccccc12)NC(=O)[C@@H](NC(=O)[C@H](CO)NC(=O)[C@H](CC(N)=O)NC(=O)[C@H](CC(N)=O)NC(=O)[C@@H](NC(=O)[C@H](CCCNC(=N)N)NC(=O)[C@H](Cc1c[nH]cn1)NC(=O)[C@H](CCCNC(=N)N)NC(=O)[C@@H](NC(=O)[C@@H](N)CC(=O)O)[C@@H](C)CC)[C@@H](C)CC)[C@@H](C)CC)C(=O)N[C@@H](Cc1ccccc1)C(=O)N[C@@H](CC(C)C)C(=O)N[C@@H](C)C(=O)N[C@@H](CCCNC(=N)N)C(=O)N[C@@H](CCCCN)C(=O)O [Peptide K17A] | 426 |
| CC[C@H](C)[C@H](NC(=O)[C@H](CC(=O)O)NC(=O)[C@H](CCCNC(=N)N)NC(=O)[C@H](Cc1c[nH]c2ccccc12)NC(=O)[C@@H](NC(=O)[C@H](CO)NC(=O)[C@H](CC(N)=O)NC(=O)[C@H](CC(N)=O)NC(=O)[C@@H](NC(=O)[C@H](CCCNC(=N)N)NC(=O)[C@H](Cc1c[nH]cn1)NC(=O)[C@H](CCCNC(=N)N)NC(=O)[C@@H](NC(=O)[C@@H](N)CC(=O)O)[C@@H](C)CC)[C@@H](C)CC)[C@@H](C)CC)C(=O)N[C@@H](Cc1ccccc1)C(=O)N[C@@H](CC(C)C)C(=O)N[C@@H](CCCCN)C(=O)N[C@@H](CCCNC(=N)N)C(=O)N[C@@H](C)C(=O)O [Peptide K19A] | 272 |
| CC[C@H](C)[C@H](NC(=O)[C@H](CC(=O)O)NC(=O)[C@H](CCCNC(=N)N)NC(=O)[C@H](Cc1c[nH]c2ccccc12)NC(=O)[C@@H](NC(=O)[C@H](CO)NC(=O)[C@H](CC(N)=O)NC(=O)[C@H](CC(N)=O)NC(=O)[C@@H](NC(=O)[C@H](CCCNC(=N)N)NC(=O)[C@H](Cc1c[nH]cn1)NC(=O)[C@H](CCCNC(=N)N)NC(=O)[C@@H](NC(=O)[C@@H](N)CC(=O)O)[C@@H](C)CC)[C@@H](C)CC)[C@@H](C)CC)C(=O)N[C@@H](Cc1ccccc1)C(=O)N[C@@H](C)C(=O)N[C@@H](CCCCN)C(=O)N[C@@H](CCCNC(=N)N)C(=O)N[C@@H](CCCCN)C(=O)O [Peptide L16A] | 127 |
| CC[C@H](C)[C@H](NC(=O)[C@H](CCCNC(=N)N)NC(=O)[C@H](Cc1c[nH]cn1)NC(=O)[C@H](CCCNC(=N)N)NC(=O)[C@@H](NC(=O)[C@@H](N)CC(=O)O)[C@@H](C)CC)C(=O)N[C@@H](C)C(=O)N[C@@H](CC(N)=O)C(=O)N[C@@H](CO)C(=O)N[C@H](C(=O)N[C@@H](Cc1c[nH]c2ccccc12)C(=O)N[C@@H](CCCNC(=N)N)C(=O)N[C@@H](CC(=O)O)C(=O)N[C@H](C(=O)N[C@@H](Cc1ccccc1)C(=O)N[C@@H](CC(C)C)C(=O)N[C@@H](CCCCN)C(=O)N[C@@H](CCCNC(=N)N)C(=O)N[C@@H](CCCCN)C(=O)O)[C@@H](C)CC)[C@@H](C)CC [Peptide N7A] | 203 |
| CC[C@H](C)[C@H](NC(=O)[C@H](CCCNC(=N)N)NC(=O)[C@H](Cc1c[nH]cn1)NC(=O)[C@H](CCCNC(=N)N)NC(=O)[C@@H](NC(=O)[C@@H](N)CC(=O)O)[C@@H](C)CC)C(=O)N[C@@H](CC(N)=O)C(=O)N[C@@H](C)C(=O)N[C@@H](CO)C(=O)N[C@H](C(=O)N[C@@H](Cc1c[nH]c2ccccc12)C(=O)N[C@@H](CCCNC(=N)N)C(=O)N[C@@H](CC(=O)O)C(=O)N[C@H](C(=O)N[C@@H](Cc1ccccc1)C(=O)N[C@@H](CC(C)C)C(=O)N[C@@H](CCCCN)C(=O)N[C@@H](CCCNC(=N)N)C(=O)N[C@@H](CCCCN)C(=O)O)[C@@H](C)CC)[C@@H](C)CC [Peptide N8A] | 692 |
| CC[C@H](C)[C@H](NC(=O)[C@H](CO)NC(=O)[C@H](CC(N)=O)NC(=O)[C@H](CC(N)=O)NC(=O)[C@@H](NC(=O)[C@H](CCCNC(=N)N)NC(=O)[C@H](Cc1c[nH]cn1)NC(=O)[C@H](CCCNC(=N)N)NC(=O)[C@@H](NC(=O)[C@@H](N)CC(=O)O)[C@@H](C)CC)[C@@H](C)CC)C(=O)N[C@@H](Cc1c[nH]c2ccccc12)C(=O)N[C@@H](C)C(=O)N[C@@H](CC(=O)O)C(=O)N[C@H](C(=O)N[C@@H](Cc1ccccc1)C(=O)N[C@@H](CC(C)C)C(=O)N[C@@H](CCCCN)C(=O)N[C@@H](CCCNC(=N)N)C(=O)N[C@@H](CCCCN)C(=O)O)[C@@H](C)CC [Peptide R12A] | 127 |
| CC[C@H](C)[C@H](NC(=O)[C@H](CC(=O)O)NC(=O)[C@H](CCCNC(=N)N)NC(=O)[C@H](Cc1c[nH]c2ccccc12)NC(=O)[C@@H](NC(=O)[C@H](CO)NC(=O)[C@H](CC(N)=O)NC(=O)[C@H](CC(N)=O)NC(=O)[C@@H](NC(=O)[C@H](CCCNC(=N)N)NC(=O)[C@H](Cc1c[nH]cn1)NC(=O)[C@H](CCCNC(=N)N)NC(=O)[C@@H](NC(=O)[C@@H](N)CC(=O)O)[C@@H](C)CC)[C@@H](C)CC)[C@@H](C)CC)C(=O)N[C@@H](Cc1ccccc1)C(=O)N[C@@H](CC(C)C)C(=O)N[C@@H](CCCCN)C(=O)N[C@@H](C)C(=O)N[C@@H](CCCCN)C(=O)O [Peptide R18A] | 406 |
| CC[C@H](C)[C@H](NC(=O)[C@H](CC(=O)O)NC(=O)[C@H](CCCNC(=N)N)NC(=O)[C@H](Cc1c[nH]c2ccccc12)NC(=O)[C@@H](NC(=O)[C@H](CO)NC(=O)[C@H](CC(N)=O)NC(=O)[C@H](CC(N)=O)NC(=O)[C@@H](NC(=O)[C@H](CCCNC(=N)N)NC(=O)[C@H](Cc1c[nH]cn1)NC(=O)[C@H](CCCNC(=N)N)NC(=O)[C@@H](NC(=O)[C@@H](N)CC(=O)O)[C@@H](C)CC)[C@@H](C)CC)[C@@H](C)CC)C(=O)N[C@@H](Cc1ccccc1)C(=O)N[C@@H](CC(C)C)C(=O)N[C@@H](CCCCN)C(=O)N[C@@H](CCCNC(=N)N)C(=O)O [desK19] | 309 |

molecular target: T1, ComD; assay: cell-based; remark: another data set of the same source

| Structure (SMILES) | IC50 [nM] |
| --- | --- |
| CC[C@H](C)[C@H](N)C(=O)N[C@@H](CCCNC(=N)N)C(=O)N[C@@H](Cc1c[nH]cn1)C(=O)N[C@@H](CCCNC(=N)N)C(=O)N[C@H](C(=O)N[C@@H](CC(N)=O)C(=O)N[C@@H](CC(N)=O)C(=O)N[C@@H](CO)C(=O)N[C@H](C(=O)N[C@@H](Cc1c[nH]c2ccccc12)C(=O)N[C@@H](CCCNC(=N)N)C(=O)N[C@@H](CC(=O)O)C(=O)N[C@H](C(=O)N[C@@H](Cc1ccccc1)C(=O)N[C@@H](CC(C)C)C(=O)N[C@@H](CCCCN)C(=O)N[C@@H](CCCNC(=N)N)C(=O)N[C@@H](CCCCN)C(=O)O)[C@@H](C)CC)[C@@H](C)CC)[C@@H](C)CC [desD1] | 985 |
